Measured values published in EP4631941A1 (Jiangsu Tasly Diyi Pharmaceutical Co., Ltd., priority 2022, dated 2024).
Read-outs that look alike come from different tables or passages of the source.

Experiments:
DYRK2 kinase = target: T1, DYRK2 kinase (Homo sapiens, UniProt Q92630); assay: DYRK2 kinase activity analysis assay (33P-ATP, DYRKtide substrate, P81 filter paper); type: biochemical; settings: 2 hours at room temperature
T1 sequence (Q92630 1-601): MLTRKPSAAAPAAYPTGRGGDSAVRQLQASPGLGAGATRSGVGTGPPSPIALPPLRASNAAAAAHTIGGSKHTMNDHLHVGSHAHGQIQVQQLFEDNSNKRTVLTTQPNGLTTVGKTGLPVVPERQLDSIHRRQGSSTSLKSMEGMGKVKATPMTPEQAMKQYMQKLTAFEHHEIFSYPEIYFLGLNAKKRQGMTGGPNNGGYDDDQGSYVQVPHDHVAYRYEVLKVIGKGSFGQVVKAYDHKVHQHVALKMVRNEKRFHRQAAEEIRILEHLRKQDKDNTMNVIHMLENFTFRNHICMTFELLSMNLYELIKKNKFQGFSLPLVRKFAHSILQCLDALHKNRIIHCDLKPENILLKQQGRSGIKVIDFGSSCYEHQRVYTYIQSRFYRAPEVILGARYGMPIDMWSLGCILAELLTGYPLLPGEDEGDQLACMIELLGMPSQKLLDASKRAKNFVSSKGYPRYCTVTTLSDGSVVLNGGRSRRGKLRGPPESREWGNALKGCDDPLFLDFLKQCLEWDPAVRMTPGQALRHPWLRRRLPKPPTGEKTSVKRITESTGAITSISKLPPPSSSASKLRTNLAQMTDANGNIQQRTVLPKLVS

[1] = system: prostate cancer DU145 cells; assay: Cell proliferation inhibition activity assay (CCK-8 method), DU145; type: cell-based
[2] = system: prostate cancer 22Rv1 cells; assay: Cell proliferation inhibition activity assay (CCK-8 method), 22Rv1; type: cell-based
ICR mice = assay: Acute toxicity test, single gavage, 14 days observation; type: in vivo
[3] = system: human prostate cancer cell DU145 xenografts in nude mice; assay: In vivo efficacy assay against prostate cancer (DU145 xenograft); parameters: species or system BALB/c nude mice; settings: Example 20 study, 21 days; for T/C(%) / tumor inhibition rate: DU145 xenograft; for body weight of nude mice during dosing: each group, once a day

**Q.** How did the IC50 (DYRK2 kinase; read-out: IC50) turn out when `Cl.O=C(c1ccc(Nc2ncc(F)c(-c3ccc4scnc4c3)n2)nc1)N1CCNCC1` [Example 20, (6-((4-(benzothiazole-5-yl)-5-fluoropyrimidine-2-yl)amino)pyridine-3-yl)(piperazine-1-yl)ketone hydrochloride] was run?
**A.** Its IC50 is 0.6 nM.

**Q.** What about the IC50 ([1]; Homo sapiens, DU-145, DU145 cells, 72 hours, CCK8) of the same molecule?
**A.** Its IC50 is 3.25 ± 0.06 µM.

**Q.** And the “inhibition of proliferation of prostate cancer DU145 cell” value ([1]; result in words)?
**A.** The value was “significantly inhibit”.

**Q.** And the IC50 ([2]; Homo sapiens, 22Rv1 cells, 72 hours, CCK8)?
**A.** Its IC50 is 2.55 ± 0.046 µM.

**Q.** And the “inhibition of proliferation of prostate cancer 22Rv1 cell” value ([2]; result in words)?
**A.** Its value is “significantly inhibit”.

**Q.** And the “death of animals after day 14 of dosing” value (ICR mice; gavage once, 1000, 2500, 5000 and 10000 mg/kg, day 14)?
**A.** The value was “no animals died”.

**Q.** What about the “weight of main organs (heart, liver, spleen, lung, kidney) versus control group” value (ICR mice; gavage once, 1000, 2500, 5000 and 10000 mg/kg, dissection after 14 days) of the same molecule?
**A.** The value was “no difference in the weight of main organs”.

**Q.** What about the abnormality after dosing (ICR mice; gavage once, 1000, 2500, 5000 and 10000 mg/kg, within 12 hours after dosing) of the same molecule?
**A.** The abnormality after dosing was “no abnormality was observed”.

**Q.** What about the “death of animals within 24 hours of dosing” value (ICR mice; gavage once, 1000, 2500, 5000 and 10000 mg/kg, within 24 hours) of the same molecule?
**A.** Its value is “No animals died”.

**Q.** What about the “toxic or side effects (overall conclusion)” value (ICR mice; gavage once, up to 10000 mg/kg) of the same molecule?
**A.** Its value is “no obvious toxic or side effects”.

**Q.** And the “T/C(%)” value ([3]; 100 mg/kg once a day)?
**A.** Its value is 50.9%.

**Q.** What about the tumor inhibition rate ([3]; 100 mg/kg once a day) of the same molecule?
**A.** The tumor inhibition rate was 48.7%.

**Q.** And the “body weight of nude mice during dosing” value [3]?
**A.** The value was “no significant decrease in body weight”.

**Q.** And the “T/C(%)” value ([3]; high dose 200 mg/kg once a day)?
**A.** Its value is 34.4%.

**Q.** And the tumor inhibition rate ([3]; high dose 200 mg/kg once a day)?
**A.** The tumor inhibition rate was 65.3%.

**Q.** With `CN(C)c1nc2ccc(-c3nc(Nc4ccc(C(=O)N5CCN(C(=O)C6CC6)CC5)cn4)ncc3F)cc2s1` [Example 36] as the molecule, how does the IC50 (DYRK2 kinase; IC50 (nM)) read?
**A.** The IC50 was 16 nM.

**Q.** With `CN(C)c1nc2ccc(-c3nc(Nc4ccc(C(=O)N5CCN(c6ccccc6)CC5)cn4)ncc3F)cc2s1` [Example 37, (6-((4-(2-(dimethylamino)benzothiazole-6-yl)-5-fluoropyrimidine-2-yl)amino)pyridine-3-yl)(4 - arylpiperazine-1-yl)ketone] as the molecule, how does the IC50 (DYRK2 kinase; IC50 (nM)) read?
**A.** The IC50 was 683 nM.

**Q.** Which IC50 (DYRK2 kinase; read-out: IC50) does the source give for `CCOC(=O)N1CCN(C(=O)c2ccc(Nc3ncc(F)c(-c4ccc5nc(N(C)C)sc5c4)n3)nc2)CC1` [Example 38, ethyl 4-(6-((4-(2-(dimethylamino)benzothiazole-6-yl)-5-fluoropyrimidine-2-yl)amino)nicotinoyl)piperazine-1-carboxylate] here?
**A.** Its IC50 is 91 nM.

**Q.** How did the “T/C(%)” value ([3]; 100 mg/kg once a day) turn out when `CNC(=O)c1ccc(N2C(=S)N(c3ccc(C#N)c(C(F)(F)F)c3)C(=O)C2(C)C)cc1F` [enzalutamide, reference compound] was run?
**A.** Its value is 42.0%.

**Q.** And the tumor inhibition rate ([3]; 100 mg/kg once a day)?
**A.** The tumor inhibition rate was 57.8%.

**Q.** What about the “body weight of nude mice during dosing” value [3] of the same molecule?
**A.** Its value is “no significant decrease in body weight”.
